Measured values from patent publication US9657046B2, “Methods for the treatment and prevention of inflammatory diseases” (Children's Medical Center Corporation, priority 2010, dated 2017).

Assays:
[1] = tested on: human NKT cell lines; test: Human NKT cell lines, IFN-γ and IL-4 production; format: cell-based; conditions: PI57 10 μg/ml, 48 hours in vitro
Method: (§1) In FIG. 7A, NKT cell lines were cocultured with BM-derived DCs (BMDCs) and α-GalCer (100 ng/ml), PI57 (10 μg/ml), or vehicle for 48 hours, with or without pre-incubation with anti-CD1d (10 μg/ml). IFN-γ was measured by ELISA. In FIG. 7B, murine NKT cell lines were cocultured as in 7A with BMDCs from WT, Cd1d^−/−, Myd88^−/−, or Trif^−/− mice. Cells were treated with α-GalCer (100 ng/ml), PI57 (2.5, 5, or 10 μg/ml), PBS30 (1, 2.5, or 5 μg/ml), or vehicle for 48 hours. IFN-γ and IL-4 were measured by ELISA. […] In FIG. 7D, mouse NKT cell lines were stained with PE-labeled CD1d tetramers of PI57 or α-GalCer at 4° C. for 45 minutes or 37° C. for 25 minutes, and with anti-TCRβ-APC antibody. Top: Lymphocytes were gated in the FSC/SSC window. Bottom: Percentage of CD1d tetramer+ cells. […] In FIG. 7G, CD1d Fc-coated Maxisorp plates were loaded with lipid and cultured with 5×10^4 NKT cells. IFN-γ was analyzed by ELISA after 24 hours. Data represent 3 or 5 independent experiments.
Human NKT cells were isolated from peripheral blood of normal volunteers, using a PE-conjugated anti-human NKT cell antibody (clone 6B11, which recognizes the CDR3 loop of the conserved Vα24 TCR found on iNKT cells) (BD Pharmingen) and anti-PE MACS beads (Miltenyi Biotec). Cells retained on the MACS column were then eluted. […]
Mouse or human IL-4 and IFN-γ levels were measured by ELISA, as previously described (20). […]

[2] = tested on: invariant Vα14 NKT cell hybridomas; test: Invariant Vα14 NKT cell hybridomas with glycolipid-loaded immobilized CD1d, IL-2; format: cell-based, mouse; conditions: immobilized recombinant CD1d loaded with glycolipid; three hybridomas (RT2, RT23, RT24)
Method: as §1
NKT cell hybridomas were established from C57BL/6 thymic NKT cells by fusion with thymoma BW5147 as previously described (61).
Culture wells were coated with recombinant CD1/β2m dimer proteins (Becton Dickinson) according to the manufacture's protocols. […] Cytokines in the culture supernatants were determined by ELISA.

[3] = tested on: NKT cell clone BM2a.3; test: Human NKT cell clone BM2a.3 with CD1d-transfected cells, IFN-γ; format: cell-based
Method: as §1
CD1d transfected K562 cells and CD1d restricted human NKT cell clone BM2a.3 were previously described (62). The anti-CD1d antibody (clone 12.1.1.1) experiments have been performed as described (63).

[4] = tested on: OVA-sensitized BALB/c mice; test: Adoptive transfer of NKT cells from glycolipid-treated mice into OVA-sensitized BALB/c recipients (AHR, BAL); format: in vivo, mouse; conditions: OVA-sensitized WT recipients
[5] = tested on: adult mice; test: Ozone-exposure model, pre-treatment of adult mice; format: in vivo, mouse; conditions: pre-treatment prior to ozone-exposure
[6] = tested on: BM2a.3 cells; test: Human NKT cell clone on CD1d Fc-coated plates loaded with lipid, IFN-γ ELISA; format: cell-based; conditions: 5×10^4 NKT cells, 24 hours
Method: In FIG. 7A, NKT cell lines were cocultured with BM-derived DCs (BMDCs) and α-GalCer (100 ng/ml), PI57 (10 μg/ml), or vehicle for 48 hours, with or without pre-incubation with anti-CD1d (10 μg/ml). IFN-γ was measured by ELISA. In FIG. 7B, murine NKT cell lines were cocultured as in 7A with BMDCs from WT, Cd1d^−/−, Myd88^−/−, or Trif^−/− mice. Cells were treated with α-GalCer (100 ng/ml), PI57 (2.5, 5, or 10 μg/ml), PBS30 (1, 2.5, or 5 μg/ml), or vehicle for 48 hours. IFN-γ and IL-4 were measured by ELISA. […] In FIG. 7D, mouse NKT cell lines were stained with PE-labeled CD1d tetramers of PI57 or α-GalCer at 4° C. for 45 minutes or 37° C. for 25 minutes, and with anti-TCRβ-APC antibody. Top: Lymphocytes were gated in the FSC/SSC window. Bottom: Percentage of CD1d tetramer+ cells. […] IFN-γ was analyzed by ELISA after 24 hours. […]
Maxisorp plates (Nunc) were coated with PBS diluted recombinant human CD1d/β2 microglobulin Fc fusion proteins (0.5 μg/well; kindly provided by Dr. Jenny Gumperz (64) and anti-LFA-1 antibodies (0.05 μg/well, AbD Serotec) overnight at 4° C. After washing with PBS, immobilized CD1d was loaded with sonicated lipid antigens diluted in 25% DMSO/dH2O by overnight incubation at 37° C. After washing with PBS and culture media, NKT cells were added (5×10^4 cells/well) and culture supernatants were analyzed for IFN-γ by ELISA after overnight culture at 37° C.

[7] = tested on: murine NKT cell lines; test: Mouse NKT cell lines cocultured with BM-derived DCs, cytokine ELISA; format: cell-based; conditions: 48 hours
Method: as §1
To establish mouse NKT cell lines, NKT cells were purified by a two-step sorting strategy using MACS. Spleen cells from BALB/c or BALB/c Vα14Jα18 Tg mice were depleted of T cells, B cells, granulocytes, macrophages and DCs by AutoMacs, then stained with PE conjugated-CD1d tetramer and FITC conjugated-anti-TCRβ mAb, and sorted using a MoFlo cell sorter (Dako). The purity of the sorted cells was >99%. To propagate the cells, sorted NKT cells were cultured in 96-well flat-bottom plates (1×10^5 cells/well) with 5×10^3 bone-marrow derived DC in the presence of murine IL-15 (Pepro Tech). Cells were subcultured and restimulated with fresh DCs once a week.
Mouse or human IL-4 and IFN-γ levels were measured by ELISA, as previously described (20). Mean values of triplicate cultures were shown. Data are representative of two or three independent experiments.

Compound: CCCCCCCCCCCCCC(=O)OC[C@H]1O[C@H](O[C@H]2CC[C@@]3(C)C(=CC[C@H]4[C@@H]5CC[C@H]([C@H](C)CCCC(C)C)[C@@]5(C)CC[C@@H]43)C2)[C@H](O)[C@@H](O)[C@@H]1O [PI57, Cholesteryl 6-O-tetradecanoyl-α-D-glucopyranoside]
- activation of human NKT cell lines (IFN-γ and IL-4 production) [1]: activated
- IL-2 production by Vα14 NKT cell hybridomas [2]: produced IL-2
- response (IFN-γ production) of Vα24+ NKT cell clone BM2a.3 [3]: responded to this glycolipid
- airway inflammation (BAL cells, lung sections) in recipients of NKT cells from glycolipid-treated donors ([4]; donors treated i.p. at 2 wk (α-C-GalCer 5 μg, PI57 50 μg)): suppressed AHR and airway inflammation
- AHR in recipients of NKT cells from glycolipid-treated donors ([4]; donors treated i.p. at 2 wk (α-C-GalCer 5 μg, PI57 50 μg, or α-GalCer), NKT cells harvested 6 wks later): suppressed AHR
- airway hyperreactivity after ozone exposure [5]: inhibit or suppress airway hyperreactivity
- lung inflammation after ozone exposure [5]: inhibit or suppress airway hyperreactivity and lung inflammation
- IFN-γ induced by plate bound CD1d loaded with glycolipid [6]: induced IFN-γ in BM2a.3 cells
- cytokine production with DCs from CD1d−/− mice ([7]; BMDCs from Cd1d−/− mice): failed to support PI57 induced cytokine production
- cytokine production with DCs from MyD88−/− or Tri−/− mice ([7]; BMDCs from Myd88−/− or Trif−/− mice): induced cytokine production
- IFN-γ production by NKT cell lines + dendritic cells ([7]; PI57 10 μg/ml, BMDCs): induced the production of IFN-γ in a CD1d-restricted manner
- cytokine (IFN-γ) production after pre-incubation with anti-CD1d mAb ([7]; PI57 10 μg/ml, anti-CD1d 10 μg/ml): blocked
- IFN-γ and IL-4 production compared to PBS30 or α-GalCer ([7]; WT BMDCs, PI57 2.5, 5 or 10 μg/ml): induced IFN-γ and less IL-4
